From ChEMBL document CHEMBL1124318, “Quinazoline antifolates inhibiting thymidylate synthase: synthesis of four oligo(L-gamma-glutamyl) conjugates of N10-propargyl-5,8-dideazafolic acid and their enzyme inhibition” (J Med Chem, 1989) come the findings set out here.

Molecules are shown by their SMILES.

The target in one assay is T1, Thymidylate synthase (Homo sapiens, UniProt P04818). As to the kind of experiment: Fold increase of inhibition of human thymidylate synthase from that of control.
Settings: not given
Target sequence in this assay (P04818 2-313 limits assumed): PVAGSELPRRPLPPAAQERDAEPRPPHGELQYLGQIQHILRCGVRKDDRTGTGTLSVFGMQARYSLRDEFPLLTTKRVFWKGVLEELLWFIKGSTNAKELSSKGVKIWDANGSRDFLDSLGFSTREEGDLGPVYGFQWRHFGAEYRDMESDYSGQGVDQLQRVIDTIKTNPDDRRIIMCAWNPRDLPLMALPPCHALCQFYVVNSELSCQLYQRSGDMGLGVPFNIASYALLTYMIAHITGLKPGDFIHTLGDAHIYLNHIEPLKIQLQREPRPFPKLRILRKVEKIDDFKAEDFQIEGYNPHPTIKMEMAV
`C#CCN(Cc1ccc2nc(N)nc(O)c2c1)c1ccc(C(=O)NC(CCC(=O)NC(CCC(=O)O)C(=O)O)C(=O)O)cc1` (stereo not drawn) came in with a Fold increase of 31. On the same count and under the same terms, with `C#CCN(Cc1ccc2nc(N)nc(O)c2c1)c1ccc(C(=O)NC(CCC(=O)NC(CCC(=O)NC(CCC(=O)NC(CCC(=O)NC(CCC(=O)O)C(=O)O)C(=O)O)C(=O)O)C(=O)O)C(=O)O)cc1` (stereo not drawn) the figure was 167; with `C#CCN(Cc1ccc2nc(N)nc(O)c2c1)c1ccc(C(=O)NC(CCC(=O)NC(CCC(=O)NC(CCC(=O)NC(CCC(=O)O)C(=O)O)C(=O)O)C(=O)O)C(=O)O)cc1` (stereo not drawn), 171; with `C#CCN(Cc1ccc2nc(N)nc(O)c2c1)c1ccc(C(=O)NC(CCC(=O)NC(CCC(=O)NC(CCC(=O)O)C(=O)O)C(=O)O)C(=O)O)cc1` (stereo not drawn), 97.

The target in another assay is T1, Thymidylate synthase. Description: Compound was tested for inhibition of human (WI-L2) thymidylate synthase. The settings on record: read-out: Ki app.
Target sequence in this assay (P04818 whole entry): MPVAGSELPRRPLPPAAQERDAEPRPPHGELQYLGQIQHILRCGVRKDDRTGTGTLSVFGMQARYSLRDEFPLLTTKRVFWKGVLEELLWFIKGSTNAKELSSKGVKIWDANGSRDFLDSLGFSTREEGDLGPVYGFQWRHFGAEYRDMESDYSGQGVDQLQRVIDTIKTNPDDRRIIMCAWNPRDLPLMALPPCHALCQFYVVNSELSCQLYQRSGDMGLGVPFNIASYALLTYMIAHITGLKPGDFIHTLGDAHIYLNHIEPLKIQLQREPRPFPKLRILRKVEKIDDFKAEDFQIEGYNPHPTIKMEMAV
Take `C#CCN(Cc1ccc2nc(N)[nH]c(=O)c2c1)c1ccc(C(=O)NC(CCC(=O)NC(CCC(=O)NC(CCC(=O)NC(CCC(=O)NC(CCC(=O)O)C(=O)O)C(=O)O)C(=O)O)C(=O)O)C(=O)O)cc1` (stereo not drawn): the Ki stood at 42 pM. Same read-out and setting: with `C#CCN(Cc1ccc2nc(N)[nH]c(=O)c2c1)c1ccc(C(=O)NC(CCC(=O)NC(CCC(=O)O)C(=O)O)C(=O)O)cc1` (stereo not drawn) the figure was 224 pM; with `C#CCN(Cc1ccc2nc(N)nc(O)c2c1)c1ccc(C(=O)NC(CCC(=O)NC(CCC(=O)NC(CCC(=O)O)C(=O)O)C(=O)O)C(=O)O)cc1` (stereo not drawn), 72 pM.

For `C#CCN(Cc1ccc2nc(N)[nH]c(=O)c2c1)c1ccc(C(=O)NC(CCC(=O)NC(CCC(=O)NC(CCC(=O)NC(CCC(=O)O)C(=O)O)C(=O)O)C(=O)O)C(=O)O)cc1` (stereo not drawn), the Ki turned out to be 41 pM.
